These results are taken from ChEMBL document CHEMBL1150535, “Acyclic NK-1 antagonists: 2-benzhydryl-2-aminoethyl ethers” (Bioorg Med Chem Lett, 1994).

Each structure is given as a SMILES string.

The first assay concerns the target Voltage-gated L-type calcium channel (Homo sapiens, UniProt Q13936+Q13698+Q01668+O60840). The assay is described as follows: Antagonistic activity at L-type calcium channel by displacement of [3H]diltiazem and enhanced [3H]nitrendipine binding. The format is protein assay.
For `Cc1cc(C)cc(COCC(NCC(N)=O)C(c2ccccc2)c2ccccc2)c1` (stereo not given), the IC50 stood at 5.5 µM. Turning to `NC(=O)CN[C@H](COCc1cc(C(F)(F)F)cc(C(F)(F)F)c1)C(c1ccccc1)c1ccccc1`, the half-maximal inhibitory concentration (IC50) was determined as 1.67 µM. The same measure, in the same setting: for `COc1ccccc1CN[C@H]1C2CCN(CC2)[C@H]1C(c1ccccc1)c1ccccc1` [CP-96345] the value was 0.24 µM. As to `Cc1cc(C)cc(COC[C@H](C(c2ccccc2)c2ccccc2)N(C)C)c1`, the half-maximal inhibitory concentration (IC50) stood at 0.98 µM.

For a further assay, the target named is Substance-P receptor (Homo sapiens, UniProt P25103). The assay is described as follows: Binding affinity towards human Tachykinin receptor 1 expressed in CHO cells by the displacement of [125 I] substance P. Format: cell-based.
Substance-P receptor, sequence (P25103 whole entry): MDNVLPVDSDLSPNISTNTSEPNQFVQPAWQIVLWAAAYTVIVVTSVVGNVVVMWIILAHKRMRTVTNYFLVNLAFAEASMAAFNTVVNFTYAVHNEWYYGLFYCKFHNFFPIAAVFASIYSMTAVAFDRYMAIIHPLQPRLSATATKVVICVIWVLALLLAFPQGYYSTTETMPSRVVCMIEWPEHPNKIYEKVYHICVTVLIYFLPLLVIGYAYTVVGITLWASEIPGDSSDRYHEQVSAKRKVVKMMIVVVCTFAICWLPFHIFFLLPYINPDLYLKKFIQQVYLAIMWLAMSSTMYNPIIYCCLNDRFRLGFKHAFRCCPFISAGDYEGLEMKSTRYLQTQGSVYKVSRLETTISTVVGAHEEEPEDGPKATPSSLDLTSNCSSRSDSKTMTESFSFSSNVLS
With `Cc1cc(C)cc(COCC(NCC(N)=O)C(c2ccccc2)c2ccccc2)c1` (stereo not given), the IC50 was 2.2 nM.

Regarding `Cc1cc(C)cc(COCC(O)C(c2ccccc2)c2ccccc2)c1` (stereo not given), the half-inhibitory concentration (IC50) came to 17 nM. On the same count and under the same terms, the figure for `NC(COCc1cccc(Cl)c1)C(c1ccccc1)c1ccccc1` (stereo not given) is 75 nM; for `Cc1cc(C)cc(COCC(NC=O)C(c2ccccc2)c2ccccc2)c1` (stereo not given) it is 11 nM; for `NC(=O)CN[C@H](COCc1cc(C(F)(F)F)cc(C(F)(F)F)c1)C(c1ccccc1)c1ccccc1` it is 0.53 nM. In turn, `NC(COCc1cc(Br)cc(Br)c1)C(c1ccccc1)c1ccccc1` (stereo not given) came in with a concentration for half-maximal inhibition (IC50) of 13.3 nM. For `Cc1cc(C)cc(COCC(NC(C)C)C(c2ccccc2)c2ccccc2)c1` (stereo not given), the IC50 stood at 55 nM. With `Cc1cc(C)cc(COC[C@H](C(c2ccccc2)c2ccccc2)N(C)C)c1`, the 50% inhibitory concentration (IC50) is 5.5 nM. Take `NC(=O)CNC(COCc1cc(C(F)(F)F)cc(C(F)(F)F)c1)C(c1ccccc1)c1ccccc1` (stereo not given): the IC50 was 0.85 nM. The compound `NC(COCc1cccc(I)c1)C(c1ccccc1)c1ccccc1` (stereo not given) registered an IC50 of 77 nM. `Cc1cc(C)cc(COCC(NCC2CC2)C(c2ccccc2)c2ccccc2)c1` (stereo not given) returned an IC50 of 93 nM. Regarding `Cc1ccc(C)c(COCC(N)C(c2ccccc2)c2ccccc2)c1` (stereo not given), the half-inhibitory concentration (IC50) was 150 nM. Still for that read-out and setting: for `CC(=O)NC(COCc1cc(C)cc(C)c1)C(c1ccccc1)c1ccccc1` (stereo not given) the value was 21 nM. Consider `CCNC(COCc1cc(C)cc(C)c1)C(c1ccccc1)c1ccccc1` (stereo not given), for which the IC50 was 12.7 nM.

With `NC(COCc1cc(Cl)cc(Cl)c1)C(c1ccccc1)c1ccccc1` (stereo not given), the IC50 worked out at 11.3 nM. `NC(COCc1ccccc1)C(c1ccccc1)c1ccccc1` (stereo not given) returned a half-inhibitory concentration (IC50) of 367 nM. `Cc1cc(C)cc(COC[C@@H](C(c2ccccc2)c2ccccc2)N(C)C)c1` came in with an IC50 of 14 nM. For the compound `Cc1cc(C)cc(COCC(C(c2ccccc2)c2ccccc2)N(C)C)c1` (stereo not given), the IC50 worked out at 4.4 nM. `CNC(COCc1cc(C)cc(C)c1)C(c1ccccc1)c1ccccc1` (stereo not given) came in with a half-maximal inhibitory concentration (IC50) of 6.8 nM.

`Cc1cc(C)cc(COCC(NCc2ccccc2)C(c2ccccc2)c2ccccc2)c1` (stereo not given) yielded an IC50 of 82 nM. `Cc1cc(Br)cc(COCC(N)C(c2ccccc2)c2ccccc2)c1` (stereo not given) returned an IC50 of 9.7 nM.
